Experimental data published in ChEMBL document CHEMBL5728659, “Macrocyclic immunomodulators” (2021).

Assay: Enzyme-Linked Immunosorbent Assay-ELISA: 96 Well plates were coated with 1 μg/mL of human PD-L1 (obtained from R&D) in PBS overnight at 4° C. The wells were then blocked with 2% BSA in PBS (W/V) with 0.05% TWEEN-20 for 1 hour at 37° C. The plates were washed 3 times with PBS/0.05% TWEEN-20 and the compounds were serial diluted (1:5) in dilution medium and added to the ELISA plates. Human PD-1 and biotin 0.3 μg/mL (ACRO Biosystems) were added and incubated for 1 hour at 37° C. then washed 3 times with PBS/0.05% TWEEN-20. A second block was performed with 2% BSA in PBS (W/V)/0.05% TWEEN-20 for 10 min at 37° C. and was washed 3 times with PBS/0.05% TWEEN-20. Streptavidin—HRP was added for 1 hour at 37° C. then washed 3 times with PBS/0.05% TWEEN-20. TMB substrate was added and reacted for 20 min at 37° C. A stop solution (2 N aqueous H2SO4) was added. The absorbance was read at 450 nm using a micro-plate spectrophotometer.

Row | SMILES | IC50
1 | O=C1NCCCC[C@@H](C(=O)O)NCc2cc(Cl)c(O[C@H]3CCc4c(-c5ccccc5F)cccc43)cc2OCc2cncc1c2 | in the range around 300 nM
2 | Cc1c(COc2cc3c(cc2Cl)CN[C@H](C(=O)O)CCCCNC(=O)CCCCO3)cccc1-c1ccccc1 | in the range around 300 nM
3 | Cc1c(COc2cc3c(cc2Cl)CN[C@H](C(=O)O)CCCCNC(=O)c2cncc(c2)CO3)cccc1-c1cccc(OCCCCl)c1C | in the range around 10200 nM
4 | Cc1c(COc2cc3c(cc2Cl)CN[C@@H](CO)C(=O)NCCNC(=O)c2cncc(c2)CO3)cccc1-c1ccccc1 | in the range around 300 nM

Now from value to compound:

Row | IC50 | SMILES
5 | in the range around 300 nM | Cc1c(COc2cc3c(cc2Cl)CN[C@H](C(=O)O)COCCNC(=O)c2cncc(c2)CO3)cccc1-c1ccccc1
6 | in the range around 300 nM | Cc1c(COc2cc3c(cc2Cl)CN[C@H](C(=O)O)CCCNC(=O)c2cncc(c2)CO3)cccc1-c1ccccc1
7 | in the range around 10200 nM | Cc1c(COc2cc3c(cc2Cl)CN[C@H](C(=O)O)CCCCNC(=O)c2cncc-3c2)cccc1-c1ccccc1
8 | in the range around 300 nM | Cc1c(COc2cc3c(cc2Cl)CN[C@H](CC(=O)O)CCCCNC(=O)c2cncc(c2)CO3)cccc1-c1ccccc1
